Measurements as given in patent publication US6864364B1, “MinK-related genes, formation of potassium channels and association with cardiac arrhythmia” (priority 1999, dated 2005).

Tests used:
[1] = molecular target: T1, heteromeric channels containing rMiRP1 (Homo sapiens, UniProt Q12809); experiment: Ca2+ treated as blocking ion, rMiRP1/HERG channels in oocytes, protocols 1 and 2; format: cell-based, rat; conditions: rMiRP1/HERG vs HERG
T1 construct: expressed in transfected cells; host or cells: Xenopus laevis oocytes, cRNA injection
Experimental: (§1) Raw data are shown without leak correction. […] All experiments were performed at 22° C.

[2] = molecular target: T2, HERG channels (Homo sapiens, UniProt Q12809); experiment: Ca2+ treated as blocking ion, HERG channels in oocytes, protocols 1 and 2; format: cell-based; set-up: expressed in transfected cells; host or cells: CHO cells; conditions: −100 mV, read-out: apparent equilibrium inhibition constant (Ki)
Experimental: as §1

[3] = molecular target: Native IKr channels; conditions: ferret cardiac myocytes; Liu et al., 1996; read-out: Ki, E-4031, native IKr channels; cited from earlier work
[4] = molecular target: Q9E-hMiRP1 channels (Homo sapiens, UniProt Q12809); experiment: Clarithromycin blockade of Q9E-hMiRP1/HERG channels in CHO cells; conditions: for Ki: clarithromycin blockade
Experimental: Wild type hMiRP1/HERG channels and those formed with Q9E, M54T, I57T or T8A-hMiRP1 were compared by transient expression in CHO cells using 1 mM Ca^2+, 4 mM KCl solution.

[5] = molecular target: wild type hMiRP1/HERG channels (Homo sapiens, UniProt Q12809); experiment: Drug blockade of wild type hMiRP1/HERG channels expressed in CHO cells
Experimental: (§2) Ionic conditions. Activation of channels formed only with HERG or containing both rMiRP1 and HERG subunits was assessed at various Ca^2+ concentrations by protocols 1 and 2. […] Initial characterizations were thus performed in a “low Ca^2+/high K^+” bath solution (in mM): 95 KCl, 5 NaCl, 1 MgCl2, 0.3 CaCl2 and 10 HEPES, pH 7.6 with NaOH. Other studies use solutions based on levels of ionized species found in human plasma (in mM): 4 KCl, 95 NaCl, 0.75 MgCl2, 1 CaCl2 and 10 HEPES, pH 7.6 with NaOH. For K^+ titrations in FIG. 4, NaCl and KCl were isotonically substituted. For cell-attached patches, pipette solution was (in mM): 100 KCl, 1 MgCl2, 0.3 CaCl2, 10 HEPES, pH 7.5 with KOH. For whole cell, pipettes contained (in mM): 100 KCl, 1 MgCl2, 10 HEPES, 2 EGTA, pH 7.5 with KOH.

[6] = molecular target: T2, HERG channels; experiment: cell-based
Experimental: as §2

[Ca+2] [Ca^2+]
apparent Ki relative to HERG channels, fold lower [1]: ~3 fold | Ki [2]: 290 ± 20 µM

Cc1cccc(CCN2CCC(C(=O)c3ccc(NS(C)(=O)=O)cc3)CC2)n1 [E-4031]
Ki [3]: 0.0103 µM

CC[C@H]1OC(=O)[C@H](C)[C@@H](O[C@H]2C[C@@](C)(OC)[C@@H](O)[C@H](C)O2)[C@H](C)[C@@H](O[C@@H]2O[C@H](C)C[C@H](N(C)C)[C@H]2O)[C@](C)(OC)C[C@@H](C)C(=O)[C@H](C)[C@@H](O)[C@]1(C)O [clarithromycin]
sensitivity to the drug relative to wild type channels [4]: 3 fold | shift of V1/2 to more positive potentials [4]: 10 mV | Ki ([4]; CHO cells, 1 mM Ca2+, 4 mM KCl): 240 ± 40 µM | Ki ([4]; bath K+ reduced to 1 mM, n=6 cells): 200 ± 70 µM | IC50 [5]: 720 ± 180 µM | Ki [5]: 590 ± 100 µM | shift of V1/2 to more positive potentials ([5]; human, pH 7.6): 10 mV | IC50 [6]: 750 ± 310 µM
